Literature values as cited in patent US20050255161A1, “Method for the long term stabilization of labile compounds at room temperature in pharmaceutical preparations containing water” (priority 2004, published 2005).
Where two headings read alike, the source gives them in different places.

CCCCC[C@H](O)/C=C/[C@H]1[C@H](O)CC(=O)[C@@H]1CCCCCCC(=O)O [prostaglandin E1, (13E)-(15S)-11alpha, 15-dihydroxy-9-oxoprost-13-enoate]
solubility in aqueous systems (low acidic medium): ~10 μg's | solubility in aqueous systems (slightly alkaline medium): ~100 μg's
